Assay results reported in the METLIN SMRT retention time set (Domingo-Almenara et al. 2019).

test: gradient 5% acetonitrile 3 min, to 50% in 2 min, to 85% in 15 min, held 3 min, 100 µL/min; settings: column: Zorbax Extend-C18 2.1 x 50 mm; eluents: water / acetonitrile, 0.1% formic acid
In short: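 Standards, all pure, were combined into mixtures of ~100 molecules and run at 100 μL/min on a Zorbax Extend-C18 column (2.1 × 50 mm, 1.8 μm) with water and acetonitrile, each containing 0.1% formic acid. A coupled quadrupole time-of-flight mass spectrometer operated in positive and negative ionization mode. Retention time values come from computationally picked adduct peaks, each inspected manually.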

SMILES	RP-LC retention time [s]
Cc1cccc(NC(=O)C2CCN(S(=O)(=O)c3cc(C(=O)N4CCOCC4)cs3)CC2)c1C	760
CCC(c1cccs1)N1C(=O)[C@H]2CN(S(=O)(=O)Cc3ccccc3)C[C@H]2C1=O (some centres undefined)	964
CCOC(=O)c1oc2ccccc2c1NC(=O)C1CCN(S(C)(=O)=O)CC1	762
COc1cc(NC(=O)N2CCC(n3c(C)nc4cccnc43)CC2)cc(OC)c1	637
COc1cc(OC)cc(-c2nnc(Cc3nc(-c4ccccc4)no3)o2)c1	1020
CC(C)OCCCNC(=O)c1cc2c(n(-c3ccc(F)cc3)c1=O)CCCC2=O	794
O=C(Nc1nc2ccccc2s1)c1ccc([N+](=O)[O-])cc1Cl	877
CCOc1ccc(CNc2nc3ccncc3n(C(C)C)c2=O)cc1OC	584
COc1cc(C(=O)N2CCCC(C)(C(=O)NCc3ccc(C)cc3)C2)cc(OC)c1OC (centres undefined)	820
CC(C)Cn1c(CC2CCN(C(=O)c3n[nH]c4ccccc34)C2)nc2cccnc21 (centres undefined)	627
Cc1ccc(CN2C(=O)N(c3cccc(F)c3)c3ncccc3S2(=O)=O)cc1	1100
CCOc1cc(S(=O)(=O)Nc2ncccc2C)ccc1Br	666
O=C(Nc1cc(F)c(F)c(F)c1)N1C[C@H]2C[C@H](C1)[C@H]1CCCC(=O)N1C2	717
CCCC(=O)Nc1nc(C(=O)OCC)cs1	700
COc1ccc(-c2nc3cnccn3c2Nc2ccc(C(=O)NCCN(C)C)cc2)cc1	586
CCOC(=O)C1=C(C)NC2=C(C(=O)C(C(=O)OC)C(C)C2)C1c1ccc(F)cc1 (centres undefined)	870
CCn1c(=O)c(N2CCCC(C(=O)NCCCN3CCOCC3)C2)nc2cccnc21 (centres undefined)	621
Cc1ccc(C2C(S(=O)(=O)c3ccc(C)cc3)=C(O)C(=O)N2Cc2ccco2)cc1 (centres undefined)	976
CC(CCc1ccccc1)NC(=O)C1CCN(S(=O)(=O)c2ccc3c(c2)CCCC(=O)N3)CC1 (centres undefined)	809

SMILES	RP-LC retention time [s]
Cc1ccc(C)c(-c2nc3ccccc3c(C(=O)N3CCN(c4ncccn4)CC3)c2C)c1	903
CCn1ccc(C(=O)N2CCN(c3nc4cccnc4n(C)c3=O)CC2)n1	721
Cc1nc(-c2cn(C(C)C)c3ncccc23)sc1C(=O)N1CCN(C)CC1	611
CCCCCc1nnc(NC(=O)C2CC(=O)N(CCc3c[nH]c4ccc(C)cc34)C2)s1 (centres undefined)	873
CN1CCN(CC2(O)CCC3(CCN(C(=O)c4ccoc4)CC3)CC2)CC1	551
CC(=O)N1CCc2cc(N3CC(C(=O)Nc4ccc(Cl)cc4)CC3=O)ccc21 (centres undefined)	750
Cc1cnn(Cc2c(C(=O)N3CCc4nn(C)c(=O)n4CC3)noc2C)c1	602
CC(C)NC(=O)C1CCN(c2nc3ccc(-c4cncnc4)nc3s2)CC1	703
CC(C)Cn1cc(S(=O)(=O)NCc2cccc(C(F)(F)F)c2)c2cccnc21	1070
NS(=O)(=O)c1ccc(NC(=O)CSc2nnc3ccc4ccccc4n23)cc1	652
CCc1ccc(NS(=O)(=O)c2cc(-c3c(CC)noc3NC(C)=O)ccc2C)cc1	886
O=C(NC1CC1)c1ccc2c(c1)CCN2C(=O)C1CCC1	721
CCc1cc(C(=O)Cc2nc3ccccc3n2C)c(O)cc1O	587
COc1cc(NC(=O)N2CCCC(Cn3cnc4cccnc43)C2)cc(OC)c1 (centres undefined)	682
CN1C(=O)C2(CCN(C(=O)CCc3ccccc3)C2)c2ccccc21 (centres undefined)	803
COc1ccc(-c2nnc(-c3ccc(C)c(S(=O)(=O)Nc4ccc(Cl)cn4)c3)o2)cc1OC	918
Cc1sc2cc(C(=O)N3CCN(c4ccc(F)cc4)CC3)[nH]c2c1CN1CCOCC1	690
NCCC1CCN(C(=O)Nc2cc(F)cc(F)c2)CC1	599
CCOc1ccc(-c2cc3c(=O)n(Cc4nc(-c5ccc(SC)cc5)no4)ncn3n2)cc1	1210

SMILES	RP-LC retention time [s]
CC(C)COc1cc(=O)n2c(c1C(=O)N1CCN(c3ccccn3)CC1)CCCCC2	591
Cc1ccc(CN2N=C(C(=O)N3CCOCC3)S(=O)(=O)c3ccc(C)cc32)cc1	907
CC(C)n1c(CN2CCOCC2)nc2cc(NC(=O)c3ccco3)ccc21	619
COc1ccc(CN2CCCN(c3cc(-c4ccccc4)[nH]n3)CC2)c(O)c1	620
COc1ccc(C(=O)NCC(=O)Nc2nc3ccccc3[nH]2)cc1	606
CCOC(=O)c1sc2nc(C)cc(C)c2c1NC(=O)CCS(=O)(=O)c1ccccc1	759
Cc1ccc2c(Nc3ccc(C)c(C)c3)c(C(=O)N3CCC(C)CC3)cnc2n1	681
CCOc1ccc(Cc2nnc(SCC(=O)c3ccc(OC)cc3)o2)cc1	938
Cc1n[nH]c(C)c1CCC(=O)NCc1c(F)cccc1F	526
O=C(c1ccno1)N1CCC(c2nnc(-c3ccco3)s2)CC1	644
COC(=O)c1nnn(-c2cc(Cl)ccc2OC)c1C(=O)OC	898
CC(=O)NCC(=O)N1CCCn2cc(-c3ccc4c(c3)OCO4)nc21	487
O=C1CCN(C(=O)C2CCN(C(=O)C3CCC3)CC2)CCCCCCN1	626
O=C(N/N=C/c1ccc([N+](=O)[O-])o1)c1ccc(O)cc1	675
CCOC(=O)c1c(C)oc2ncnc(NC3CCCc4ccccc43)c12 (centres undefined)	1310
CCC(C)NC(=O)c1c2c(cn(-c3ccc(F)cc3)c1=O)C(=O)CC(C)(C)C2 (centres undefined)	920
Cc1nnc(-c2sccc2C)o1	742
CCC(=O)n1nc(-c2ccc(C)c(C)c2)nc1N	923

Results, then the compound that gave them:

RP-LC retention time [s]	SMILES
1020	O=C(CN1CCCCC1c1nc(-c2ccc(F)cc2)no1)NCc1cccs1 (centres undefined)
887	COc1ccc(-c2nnc(N3CCC(C(=O)NCC4CCCCC4)CC3)o2)cc1
806	O=C(NCc1ccc(F)cc1F)c1ccc2c(c1)nc1n2CCN(C2CCCCC2)C1=O
876	O=C(c1cc2c(=O)n(Cc3ccccc3)ccc2s1)N1CCCCCC1
811	Cn1cc(-c2ccc(F)cc2)cc1C(=O)N1CCOCC1
586	CCN1CCN(C(=O)C2CCN(c3nc4ccc(-c5cccs5)nc4s3)CC2)CC1
914	O=C(NCCc1c[nH]c2ccc(F)cc12)c1cn(-c2ccc(F)cc2)nn1
694	CC(=O)Nc1ccc(NC(=O)Cn2cccc(-c3nc(-c4ccccc4)no3)c2=O)cc1
592	Cc1ccc(CN2C[C@@H](CO)[C@H](c3nc(C)no3)C2)cc1
974	COc1ccc(-c2noc(C3CCCN3C(=O)Nc3ccc(OC)c(Cl)c3)n2)cc1 (centres undefined)
875	O=C(CSc1nnc(-c2cccs2)o1)N1CCc2ccccc21
778	Cc1ccc(CNC(=O)Cn2c(N(C)Cc3ccccc3)nc(C)cc2=O)cc1
886	CCOCCCNC(=O)C1CCCN(c2ncc(-c3ccc(F)cc3)cn2)C1 (centres undefined)
657	O=C(Nc1ccc(F)c(Cl)c1)NC1CCCN(c2cc(-c3ccncc3)[nH]n2)C1 (centres undefined)
679	Clc1ccc(-c2noc(CN3CCN(c4ccccn4)CC3)n2)cc1
1090	CCOc1cccc(-c2noc(Cn3c(=O)n(-c4ccc(C)cc4)c(=O)c4sccc43)n2)c1
676	COc1ccccc1C(=O)Nc1c(-c2ccc(F)cc2)nc2ccccn12

RP-LC retention time [s]	SMILES
962	COc1ccc(-c2csc(NC(=O)c3ccc(C)o3)n2)cc1
1090	COc1ccccc1CCC(=O)N1CCc2cc(-c3csc(C)n3)ccc21
565	O=C(NCC#CCN1CCc2ccccc2C1)c1c(F)cccc1Cl
1200	CCc1noc(-c2ccc(SCC(=O)N3CCCCC3C)nc2)n1 (centres undefined)
1090	O=C(Cn1cccc1-c1nc(-c2ccc3c(c2)OCO3)no1)N1CCc2ccccc21
884	CCCCNC(=O)CN1c2ccc(F)cc2-c2ccccc2S1(=O)=O
896	Cc1ccc2ncn(C3CCN(S(=O)(=O)c4ccc(F)cc4)CC3)c(=O)c2c1
1060	Cc1ccc(NC(=O)N2CCCC2c2nc(-c3cccc(C)c3)no2)cc1 (centres undefined)
861	Cc1nc(Nc2ccc(F)cn2)sc1C(=O)N1CCN(c2ccc(F)cc2)CC1
726	CCCC(=O)Nc1ccc(-n2cnc(C(=O)NC3CCCC3)c2)nc1
824	Cc1ccc(CNC(=O)C2CCN(S(=O)(=O)c3ccc4c(c3)NC(=O)C(C)O4)CC2)cc1 (centres undefined)
606	COc1ccc(-c2nnc3ccc(SCC(=O)Nc4cc(C)on4)nn23)cc1OC
820	COC(=O)c1ccc(C2CC(=O)NC3=C2C(=O)CC(c2ccc(F)cc2)C3)cc1 (centres undefined)
574	O=C(CN1C(=O)CCC1=O)N1CC(c2nc(-c3cnccn3)no2)C1
925	CC(C)CNC(=O)N1c2ccccc2CC1c1nc(C2CC2)no1 (centres undefined)
650	O=C(NC1CCN(c2cc(-c3ccccc3)[nH]n2)C1)c1ccoc1 (centres undefined)
